Experimental data taken from ChEMBL document CHEMBL5357015, “Synthesis, Antiacetylcholinesterase Activity, and Molecular Dynamics Simulation of Aporphine-benzylpyridinium Conjugates” (ACS Med Chem Lett, 2024).
Counter-ions that a name gives are not always drawn.

Columns and labels:
Acetylcholinesterase [1] = target: T1, Acetylcholinesterase (Electrophorus electricus, UniProt O42275); test: Inhibition of electric eel AChE using acetylthiocholine iodide as substrate preincubated for 20 mins followed by substrate addition and measured every 20 secs for 3 mins by Ellman's method
Cholinesterase = Cholinesterase (Equus caballus, UniProt P81908); test: Inhibition of horse serum BuChE using butyrylthiocholine iodide as substrate preincubated for 20 mins followed by substrate addition and measured every 20 secs for 3 mins by Ellman's method
[2] = Selectivity index, ratio of IC50 for horse serum BuChE using butyrylthiocholine iodide as substrate to IC50 for electric eel AChE using acetylthiocholine iodide as substrate
[3] = target: Acetylcholinesterase (Electrophorus electricus) (UniProt O42275); test: Inhibition of electric eel AChE using acetylthiocholine iodide as substrate at 10 uM preincubated for 20 mins followed by substrate addition and measured every 20 secs for 3 mins by Ellman's method relative to control; details: time 23.0 min
MRC5 = test: Cytotoxicity against human MRC5 cells assessed as reduction in cell viability at 50 ug/ml relative to control; assay type: toxicity, cell-based; details: at 50 µg/mL
[4] = Lipophilicity, log P of the compound in n-octanol/water by HPLC method; assay type: physicochemical
Acetylcholinesterase [5] = target: T1, Acetylcholinesterase; test: Binding affinity to electric eel AChE assessed as inhibition constant by Lineweaver-Burk plot analysis
[6] = Cytotoxicity against human MRC5 cells assessed as reduction in cell viability; assay type: toxicity, cell-based

T1 sequence (O42275 whole entry): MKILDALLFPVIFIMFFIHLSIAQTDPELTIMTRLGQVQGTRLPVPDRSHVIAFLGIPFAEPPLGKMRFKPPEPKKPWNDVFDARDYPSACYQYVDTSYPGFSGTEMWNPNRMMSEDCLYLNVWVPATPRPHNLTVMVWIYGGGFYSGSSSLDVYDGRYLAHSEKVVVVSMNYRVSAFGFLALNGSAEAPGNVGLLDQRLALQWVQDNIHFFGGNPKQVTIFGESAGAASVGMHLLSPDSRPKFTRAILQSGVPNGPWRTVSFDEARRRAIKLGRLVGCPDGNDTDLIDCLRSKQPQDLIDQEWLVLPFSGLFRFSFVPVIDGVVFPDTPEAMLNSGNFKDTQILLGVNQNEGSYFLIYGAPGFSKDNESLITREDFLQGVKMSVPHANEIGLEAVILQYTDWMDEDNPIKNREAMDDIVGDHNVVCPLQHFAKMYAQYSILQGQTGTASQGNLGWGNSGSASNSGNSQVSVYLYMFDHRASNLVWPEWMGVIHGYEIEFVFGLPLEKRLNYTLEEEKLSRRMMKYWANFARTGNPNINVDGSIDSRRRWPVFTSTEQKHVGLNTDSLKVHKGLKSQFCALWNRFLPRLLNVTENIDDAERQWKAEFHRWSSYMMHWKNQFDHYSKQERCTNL
Cholinesterase, sequence (P81908 whole entry): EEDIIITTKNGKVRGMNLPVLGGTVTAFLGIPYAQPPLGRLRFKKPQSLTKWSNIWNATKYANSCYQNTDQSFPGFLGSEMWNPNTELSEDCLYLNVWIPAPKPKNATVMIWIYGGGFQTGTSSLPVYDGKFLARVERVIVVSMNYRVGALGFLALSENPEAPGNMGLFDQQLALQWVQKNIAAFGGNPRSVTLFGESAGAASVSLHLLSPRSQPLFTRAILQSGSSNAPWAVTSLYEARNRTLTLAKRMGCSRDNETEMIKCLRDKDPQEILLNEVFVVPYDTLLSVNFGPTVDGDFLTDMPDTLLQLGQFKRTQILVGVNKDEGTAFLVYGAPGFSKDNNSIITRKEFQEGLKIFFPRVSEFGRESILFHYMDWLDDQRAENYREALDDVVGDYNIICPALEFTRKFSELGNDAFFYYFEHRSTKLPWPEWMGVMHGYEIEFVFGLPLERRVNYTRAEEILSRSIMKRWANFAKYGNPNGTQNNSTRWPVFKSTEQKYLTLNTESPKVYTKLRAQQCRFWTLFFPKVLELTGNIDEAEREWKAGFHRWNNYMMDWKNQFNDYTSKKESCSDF
Acetylcholinesterase (Electrophorus electricus), sequence (O42275 24-633 limits assumed): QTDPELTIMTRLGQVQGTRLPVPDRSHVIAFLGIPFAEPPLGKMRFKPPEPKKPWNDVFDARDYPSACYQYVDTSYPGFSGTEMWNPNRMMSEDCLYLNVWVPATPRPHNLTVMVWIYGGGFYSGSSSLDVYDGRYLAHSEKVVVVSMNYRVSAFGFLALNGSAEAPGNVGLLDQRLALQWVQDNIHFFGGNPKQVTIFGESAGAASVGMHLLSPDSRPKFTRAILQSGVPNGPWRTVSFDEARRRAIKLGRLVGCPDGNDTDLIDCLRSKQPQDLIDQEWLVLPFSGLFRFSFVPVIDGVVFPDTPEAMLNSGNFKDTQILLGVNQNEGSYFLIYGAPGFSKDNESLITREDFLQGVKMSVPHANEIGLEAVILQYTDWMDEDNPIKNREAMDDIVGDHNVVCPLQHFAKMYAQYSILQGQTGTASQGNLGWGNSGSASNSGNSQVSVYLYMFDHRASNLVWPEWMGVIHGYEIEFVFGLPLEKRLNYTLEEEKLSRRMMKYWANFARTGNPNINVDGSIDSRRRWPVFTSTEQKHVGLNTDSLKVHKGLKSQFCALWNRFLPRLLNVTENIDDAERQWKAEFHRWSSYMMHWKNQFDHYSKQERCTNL

| SMILES | IC50 (Acetylcholinesterase [1]) [nM] | IC50 (Cholinesterase) [nM] | Ratio IC50 [2] | inhibition [3] [%] | Activity (MRC5) [%] | logP [4] | Ki (Acetylcholinesterase [5]) [nM] | IC50 [6] [µg/mL] |
| --- | --- | --- | --- | --- | --- | --- | --- | --- |
| COc1cc2c3c(cc4ccccc4c3c1OC)N(C(=O)c1cc[n+](Cc3ccccc3Cl)cc1)CC2 | 1640 | 440 | 0.3 |  |  |  |  |  |
| COc1cc2c3c(cc4ccccc4c3c1OC)N(C(=O)c1ccncc1)CC2 |  |  |  | 16 |  |  |  |  |
| COc1cc2c3c(c1OC)-c1ccccc1CC3N(C(=O)c1ccncc1)CC2 (racemic) |  |  |  | 5 |  |  |  |  |
| COc1cc2c3c(c1OC)-c1ccccc1CC3N(C(=O)c1cc[n+](Cc3ccc(F)cc3)cc1)CC2.[Br-] (racemic) | 660 | 4730 | 7 |  | 2.46 | 2.3 |  |  |
| COc1cc2c3c(c1OC)-c1ccccc1C[C@H]3N(C(=O)c1cc[n+](Cc3ccccc3Cl)cc1)CC2.[Br-] | 2940 | 2490 | 0.8 |  | 5.3 | 2.36 | 1650 |  |
| COc1cc2c3c(c1OC)-c1ccccc1C[C@@H]3N(C(=O)c1cc[n+](Cc3ccccc3Cl)cc1)CC2.[Br-] | 60 | 1820 | 30.3 |  | 5.03 | 2.36 | 220 |  |
| COc1cc2c3c(cc4ccccc4c3c1OC)NCC2 |  |  |  | 12 |  |  |  |  |
| COc1cc2c3c(c1OC)-c1ccccc1C[C@H]3N(C(=O)c1cc[n+](Cc3ccc(F)cc3)cc1)CC2 | 12200 | 15400 | 1.3 |  |  | 2.3 | 6870 |  |
| COc1cccc2c1C(=O)c1c(O)c3c(c(O)c1C2=O)C[C@@](O)(C(=O)CO)C[C@@H]3O[C@H]1C[C@H](N)[C@H](O)[C@H](C)O1 [DOXORUBICIN HYDROCHLORIDE] |  |  |  |  |  |  |  | 1.54 |
| COc1cc2c3c(cc4ccccc4c3c1OC)N(C(=O)c1cc[n+](Cc3ccccc3)cc1)CC2 |  |  |  | 69 |  |  |  |  |
| COc1cc2c3c(c1OC)-c1ccccc1C[C@@H]3N(C(=O)c1cc[n+](Cc3ccc(F)cc3)cc1)CC2 | 370 | 8580 | 23.2 |  |  | 2.3 | 270 |  |
| COc1cc2c3c(c1OC)-c1ccccc1CC3N(C(=O)c1cc[n+](Cc3cccc(Cl)c3)cc1)CC2 (racemic) | 2150 | 960 | 0.5 |  |  | 2.62 |  |  |
| COc1cc2c3c(c1OC)-c1ccccc1CC3N(C(=O)c1cc[n+](Cc3cccc(F)c3F)cc1)CC2 (racemic) | 750 | 1540 | 2 |  |  |  |  |  |
| COc1cc2c3c(cc4ccccc4c3c1OC)N(C(=O)c1cc[n+](Cc3ccccc3F)cc1)CC2 | 2730 | 280 | 0.1 |  |  |  |  |  |
| COc1cc2c3c(c1OC)-c1ccccc1C[C@H]3N(C(=O)c1cc[n+](Cc3ccccc3)cc1)CC2 | 7150 | 4950 | 0.7 |  |  | 2.2 | 2570 |  |
| COc1cc2c3c(c1OC)-c1ccccc1CC3N(C(=O)c1cc[n+](Cc3ccccc3)cc1)CC2.[Br-] (racemic) | 350 | 1330 | 3.8 |  | 3.62 | 2.2 |  |  |
| COc1cc2c3c(c1OC)-c1ccccc1CC3N(C(=O)c1cc[n+](Cc3c(F)cccc3F)cc1)CC2 (racemic) | 800 | 970 | 1.2 |  |  | 2.08 |  |  |
| COc1cc2c3c(c1OC)-c1ccccc1CC3N(C(=O)c1cc[n+](Cc3ccccc3Cl)cc1)CC2.[Br-] (racemic) | 180 | 710 | 3.9 |  | 2.96 | 2.36 |  |  |
| COc1cc2c3c(c1OC)-c1ccccc1CC3N(C(=O)c1cc[n+](Cc3ccccc3F)cc1)CC2 (racemic) | 410 | 1370 | 3.3 |  |  |  |  |  |
| COc1cc2c3c(c1OC)-c1ccccc1C[C@@H]3N(C(=O)c1cc[n+](Cc3ccccc3)cc1)CC2 | 120 | 4900 | 40.8 |  |  | 2.2 | 170 |  |
| COc1cc2c3c(c1OC)-c1ccccc1CC3N(C(=O)c1cc[n+](Cc3ccc(Cl)cc3)cc1)CC2 (racemic) |  |  |  | 31 |  | 2.67 |  |  |
| COc1cc2c3c(c1OC)-c1ccccc1CC3N(C(=O)c1cc[n+](Cc3cccc(F)c3)cc1)CC2 (racemic) | 450 | 1340 | 3 |  |  |  |  |  |
